Eight compounds from PubChem BioAssay (NCI) can be followed below.

“And” between values parts separate entries of the source, which are not always exact repeats. Equal entries are not always repeated.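 Cultured in 96-well plates, cells were exposed to test compound for 48 hours across five concentrations. GI50 is the concentration that inhibits growth by half. TGI denotes the concentration required for complete inhibition of growth.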

Some test systems named below: HOP-62 NSCLC; MDA-MB-435; SK-MEL-5 melanoma; SN12C renal; A549 NSCLC; HT29 colon; TK-10 renal; UO-31 renal; HL-60(TB) leukemia; HCC-2998 colon.
What all share (assay): NCI tumour cell line growth inhibition, 48 h

For `CCOc1ccc(Nc2nc(-c3ccc4c(c3)NC(=O)CO4)cs2)cc1`, the GI50 with HOP-62 NSCLC is 15400 nM; with MDA-MB-435 it was 2950 nM; with SK-MEL-5 melanoma, 1650 nM; in the experiment on SN12C renal, 49400 nM; in the experiment with A549 NSCLC it was 5140 nM; in the experiment with HT29 colon, 5740 nM. Further, the GI50 was 9980 nM in the experiment with TK-10 renal, 5470 nM in the experiment on UO-31 renal and 2140 nM with HL-60(TB) leukemia. Moreover, the TGI in the experiment with HOP-62 NSCLC was > 100000 nM; with MDA-MB-435, 11300 nM; in the experiment with SK-MEL-5 melanoma it was 3500 nM; in the experiment with SN12C renal, > 100000 nM; in the experiment on A549 NSCLC it was > 100000 nM; with HT29 colon, > 100000 nM. Also, the figures for the TGI in the experiment with TK-10 renal, in the experiment on UO-31 renal and in the experiment with HL-60(TB) leukemia were > 100000 nM, > 100000 nM and 8170 nM, respectively.
As for `CCCN1CCN(c2ccc3nc(-c4ccc5nc(-c6cc(OC)ccc6OC)[nH]c5c4)[nH]c3c2)CC1`, the GI50 in the experiment on MDA-MB-435 is 1790 nM; with SK-MEL-5 melanoma, 15100 nM; in the experiment with SN12C renal it was 16300 nM; with A549 NSCLC, 1850 nM; in the experiment with HCC-2998 colon it was 1800 nM; in the experiment with HT29 colon, 1800 nM. In addition, the GI50 with UO-31 renal was 14600 nM; in the experiment on HL-60(TB) leukemia it was 3120 nM. Also, the TGI with MDA-MB-435 stood at 3240 nM; with SK-MEL-5 melanoma, 34100 nM; in the experiment on SN12C renal, 32800 nM; in the experiment on A549 NSCLC, 3640 nM; in the experiment with HCC-2998 colon, 3250 nM; in the experiment on HT29 colon it was 3460 nM. Also, the TGI in the experiment with UO-31 renal is 29300 nM; in the experiment on HL-60(TB) leukemia, 8910 nM.
For the compound `COc1ccc(C2=C(c3ccc(OC)c(OC)c3)C(=O)OC2)cc1`, the GI50 was < 10 nM in the experiment on HOP-62 NSCLC; < 46.3 nM with MDA-MB-435; < 50 nM with SK-MEL-5 melanoma; 123 nM in the experiment with SN12C renal; 133 nM in the experiment on A549 NSCLC; < 10 nM in the experiment on HT29 colon. The GI50 in the experiment on UO-31 renal was 116 nM. Further, the TGI with SK-MEL-5 melanoma was 2570 nM; in the experiment with SN12C renal it was > 82100 nM; in the experiment on A549 NSCLC, > 100000 nM; with HT29 colon, > 100000 nM; in the experiment on TK-10 renal it was 16500 nM; in the experiment with UO-31 renal, > 85900 nM. This compound also returned a TGI in the experiment on HL-60(TB) leukemia of 1510 nM.
As to `Cc1cc2cc3c(C)cc(=O)oc3c(C)c2o1`, the TGI in the experiment on HOP-62 NSCLC, in the experiment with MDA-MB-435, with SK-MEL-5 melanoma, in the experiment on SN12C renal, in the experiment with A549 NSCLC and with HCC-2998 colon was > 100000 nM throughout. Further, the TGI in the experiment with HT29 colon, in the experiment on UO-31 renal and with HL-60(TB) leukemia was > 100000 nM in each case.
As for `CN(C)C1CCN(C(=O)c2ccc(NC(=O)Nc3ccc(-c4nc(N5CCOCC5)nc(N5CCOCC5)n4)cc3)cc2)CC1`, the GI50 with HOP-62 NSCLC is 22 nM and 102 nM and 32.4 nM; with MDA-MB-435, 14.8 nM and 13 nM and 22.1 nM; in the experiment with SK-MEL-5 melanoma it was 61.3 nM and 548 nM; in the experiment with SN12C renal, < 12.9 nM and 13.3 nM and 20.8 nM; with A549 NSCLC, 13.2 nM and 18.3 nM and 41.7 nM; in the experiment on HCC-2998 colon, 11.8 nM and 24 nM and 10.2 nM. For the same compound, the GI50 was 13.8 nM and 15.3 nM and 13.1 nM in the experiment on HT29 colon; 363 nM and 389 nM and 122 nM with TK-10 renal; 244 nM and 45.7 nM and 52.6 nM in the experiment on HL-60(TB) leukemia. In addition, the TGI in the experiment with HOP-62 NSCLC was 382 nM and 1900 nM and 1100 nM; in the experiment on MDA-MB-435, 133 nM and 284 nM and 324 nM; in the experiment with SK-MEL-5 melanoma, 323 nM and 2180 nM; in the experiment on SN12C renal it was 13100 nM and 2500 nM and > 10000 nM; in the experiment with A549 NSCLC it was 232 nM and 360 nM and 1020 nM; in the experiment on HCC-2998 colon it was 839 nM and 2500 nM and 1030 nM. Also, the TGI in the experiment on HT29 colon was 266 nM and 2500 nM and 302 nM; with TK-10 renal, 1840 nM and 1560 nM and 2500 nM; in the experiment with HL-60(TB) leukemia it was > 20400 nM and 2500 nM and 8910 nM.
For the compound `NC(=N\N=C/c1cccc([N+](=O)[O-])c1)/C(N)=N\N=C/c1cccc([N+](=O)[O-])c1`, the GI50 with HOP-62 NSCLC, in the experiment on MDA-MB-435, with SK-MEL-5 melanoma, in the experiment with SN12C renal, in the experiment with HCC-2998 colon and in the experiment on HT29 colon was > 100000 nM each time. In addition, the GI50 with TK-10 renal, in the experiment with UO-31 renal and in the experiment on HL-60(TB) leukemia was > 100000 nM each time. Further, the TGI with HOP-62 NSCLC, in the experiment on MDA-MB-435, in the experiment on SK-MEL-5 melanoma, with SN12C renal, with HCC-2998 colon and in the experiment on HT29 colon was > 100000 nM each time. Moreover, the TGI in the experiment with TK-10 renal, with UO-31 renal and in the experiment with HL-60(TB) leukemia was > 100000 nM in each case.
Take `COc1cc2c(cc1OCCCCCCN1CCN(c3ncnc4ccccc34)CC1)N=CC1CCCN1C2=O` (stereo unspecified): the GI50 with HOP-62 NSCLC was 290 nM; in the experiment on MDA-MB-435, 90.5 nM; with SK-MEL-5 melanoma it was 139 nM; in the experiment on SN12C renal, 155 nM; with A549 NSCLC, 275 nM; in the experiment on HCC-2998 colon it was 191 nM. Besides, the GI50 with HT29 colon was 44.9 nM; in the experiment on TK-10 renal, 155 nM; with HL-60(TB) leukemia it was 78.2 nM. Besides, the TGI with HOP-62 NSCLC is 3820 nM; in the experiment with MDA-MB-435, 252 nM; with SK-MEL-5 melanoma, 287 nM; in the experiment with SN12C renal it was 6470 nM; in the experiment with A549 NSCLC it was 5550 nM; in the experiment on HCC-2998 colon, 520 nM. The results for the TGI in the experiment with HT29 colon and in the experiment with TK-10 renal were 919 nM and 1880 nM, respectively.
Regarding `O=C(Nc1cc[c]([Sb](=[O])([OH])[OH])cc1)c1ccccc1`, the GI50 in the experiment on HOP-62 NSCLC, with MDA-MB-435, in the experiment on SK-MEL-5 melanoma, with SN12C renal, with A549 NSCLC and in the experiment on HT29 colon was > 100000 nM each time. Moreover, the GI50 in the experiment with TK-10 renal and with UO-31 renal was > 100000 nM in each case. For the same compound, the TGI in the experiment on HOP-62 NSCLC, in the experiment with MDA-MB-435, in the experiment on SK-MEL-5 melanoma, in the experiment on SN12C renal, in the experiment on A549 NSCLC and with HT29 colon was > 100000 nM throughout. The TGI in the experiment on TK-10 renal and in the experiment with UO-31 renal was > 100000 nM throughout.
